US20240174634A1, “Aldehyde Dehydrogenase Inhibitors and Their Therapeutic Use” (priority 2020, published 2024)

target: T1, ALDH1A3 (Homo sapiens, UniProt P47895); assay: ALDH1A3 cellular assay (ALDEFLUOR) in WM266.4 melanoma cells; format: cell-based; conditions: WM266.4 cells; 60 min incubation; percentage of ALDH-positive cells
T1 sequence (P47895 1-512): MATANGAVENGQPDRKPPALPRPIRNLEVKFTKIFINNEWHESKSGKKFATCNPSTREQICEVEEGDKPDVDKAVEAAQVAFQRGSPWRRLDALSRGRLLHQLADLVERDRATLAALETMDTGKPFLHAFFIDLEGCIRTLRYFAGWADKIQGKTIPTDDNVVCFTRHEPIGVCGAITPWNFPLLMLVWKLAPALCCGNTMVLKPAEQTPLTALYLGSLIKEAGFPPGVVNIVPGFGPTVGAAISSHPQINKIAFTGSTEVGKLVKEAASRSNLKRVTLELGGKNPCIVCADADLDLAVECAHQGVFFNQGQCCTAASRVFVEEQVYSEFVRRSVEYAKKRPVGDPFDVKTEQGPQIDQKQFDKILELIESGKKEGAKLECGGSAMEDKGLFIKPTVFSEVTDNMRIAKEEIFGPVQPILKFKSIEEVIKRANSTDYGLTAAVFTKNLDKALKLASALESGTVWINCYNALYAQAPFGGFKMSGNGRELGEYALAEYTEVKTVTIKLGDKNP
Excerpt: Materials: WM266.4 cells were procured from ATCC. (WM266-4 is a metastatic human melanoma cell line.) The ALDEFLUOR™ Assay kit (cat. no. 01700) and Aldefluor buffer (cat. no. 01702) were procured from StemCell Technologies. Dulbecco's Modified Eagle Medium (DMEM), FluoroBrite DMEM, Glutamax and Hoechst 33342 were purchased from ThermoFisher. Verapamil was obtained from Fluorochem. FBS was obtained from Sigma. Echo Qualified 384-well low-dead-volume microplate and Echo Qualified 384-well polypropylene microplate were purchased from Labcyte, and the Microclear black sterile polystyrene microplate from Greiner Bio-One.
Method: Intracellular inhibition of ALDH1A3 was assessed using the ALDEFLUOR™ Assay kit. The activated ALDEFLUOR™ reagent, BODIPY-aminoacetaldehyde (BAAA), is a fluorescent non-toxic substrate for ALDH enzymes, which freely diffuses into intact and viable cells. In the presence of ALDH enzyme activity, BAAA is converted into BODIPY-aminoacetate (BAA), which is retained inside the cells. The amount of fluorescent reaction product is proportional to the ALDH activity in the cells and is measured using an imaging cytometer. Active efflux of the reaction product is inhibited by an efflux inhibitor (Verapamil) in the ALDEFLUOR™ Assay Buffer.
A frozen vial of cells was recovered into a T225 flask containing DMEM, high glucose, 10% FBS, 1% glutamax, 1% HEPES. The following day, media was changed and cells were ready for assay from 72 hours after recovery. Cells were transferred into FluoroBrite DMEM (plus 10% FBS, 1% glutamax and 1% HEPES) and diluted to 2.5×10^5 cells/mL. 30 μL of cells were added to each well to give 7500 cells/well and then incubated overnight at 37° C., 5% CO2. After overnight incubation, the media was aspirated and replaced by 20 μL substrate/Hoechst buffer solution. Each plate requires 9 mL of solution comprising, 9 mL ALDEFLUOR assay buffer, 18 μL BAAA substrate (final concentration 500 nM), 4.5 μL Hoechst 33342 (final concentration 5 μg/mL) and 4.5 μL Verapamil (final concentration 50 μM). Compounds were prepared for dosing using the Echo acoustic dispenser by aliquoting into a source plate and dosed directly onto the cell assay plate to give a 10 point dose response per compound ranging from 10 μM to 0.0005 μM final concentration in 3-fold dilution steps. Plates were then incubated for 60 minutes at 37° C., 5% CO2. The buffer was then aspirated and cells washed twice in ice-cold PBS. Plates were kept on ice and 30 μL of cold Aldefluor buffer with 50 μM verapamil dispensed per well. The plates were then imaged using the CellInsight fluorescent microscope. Hoechst fluorescence in the 405 nm channel indicated the nuclear area and this was used to define nuclei and then the surrounding cellular area. Fluorescence in the 488 nm channel of the defined cellular area indicates ALDH1A3 activity. The percentage of cells positive for ALDH activity was plotted versus compound concentration to generate EC50 values using curve fitting parameters defined in Dotmatics software.

SMILES	IC50
O=C1CCc2cc(OCCN3CCCC3c3ccccc3)ccc2N1 (stereo not drawn) [ALDHI-2019, 6-[2-(2-phenylpyrrolidin-1-yl)ethoxy]-3,4-dihydro-1H-quinolin-2-one]	100 to 1000 nM
O=C1CCCc2cc(OCCN3CCCC3c3cccc(F)c3)ccc2N1 (stereo not drawn) [ALDHI-2020, 7-[2-[2-(3-fluorophenyl)pyrrolidin-1-yl]ethoxy]-1,3,4,5-tetrahydro-1-benzazepin-2-one]	100 to 1000 nM
O=C1CCc2cc(OCCN3CCC3c3cccc(F)c3)ccc2N1 (stereo not drawn) [ALDHI-2021, 6-[2-[2-(3-fluorophenyl)azetidin-1-yl]ethoxy]-3,4-dihydro-1H-quinolin-2-one]	1000 to 10000 nM
O=c1ccc2cc(OCCN3CCCC3c3cccc(F)c3)ccc2[nH]1 (stereo not drawn) [ALDHI-2022, 6-[2-[2-(3-fluorophenyl)pyrrolidin-1-yl]ethoxy]-1H-quinolin-2-one]	100 to 1000 nM
O=C1CCc2cc(OCCn3nccc3-c3cccc(F)c3)ccc2N1 [ALDHI-2023, 6-[2-[5-(3-fluorophenyl)pyrazol-1-yl]ethoxy]-3,4-dihydro-1H-quinolin-2-one]	< 100 nM
Cn1cc(C2CCCN2CCOc2ccc3c(c2)SCC(=O)N3)cn1 (stereo not drawn) [ALDHI-2026, 7-[2-[2-(1-methylpyrazol-4-yl)pyrrolidin-1-yl]ethoxy]-4H-1,4-benzothiazin-3-one]	1000 to 10000 nM
O=C1CSc2cc(OCCN3CCCC3c3ccccn3)ccc2N1 (stereo not drawn) [ALDHI-2027, 7-[2-[2-(2-pyridyl)pyrrolidin-1-yl]ethoxy]-4H-1,4-benzothiazin-3-one]	1000 to 10000 nM
O=C1CSc2cc(OCCN3CCCC3c3cccnc3)ccc2N1 (stereo not drawn) [ALDHI-2028, 7-[2-[2-(3-pyridyl)pyrrolidin-1-yl]ethoxy]-4H-1,4-benzothiazin-3-one]	100 to 1000 nM
O=C1CSc2cc(OCCN3CCCC3c3ccncc3)ccc2N1 (stereo not drawn) [ALDHI-2029, 7-[2-[2-(4-pyridyl)pyrrolidin-1-yl]ethoxy]-4H-1,4-benzothiazin-3-one]	100 to 1000 nM
Cc1ccc(C2CCCN2CCOc2ccc3c(c2)CCC(=O)N3)cn1 (stereo not drawn) [ALDHI-2030, 6-[2-[2-(6-methyl-3-pyridyl)pyrrolidin-1-yl]ethoxy]-3,4-dihydro-1H-quinolin-2-one]	100 to 1000 nM
O=C1CCc2cc(OCCN3CCOCC3c3cccc(F)c3)ccc2N1 (stereo not drawn) [ALDHI-2031, 6-[2-[3-(3-fluorophenyl)morpholin-4-yl]ethoxy]-3,4-dihydro-1H-quinolin-2-one]	< 100 nM
O=C1CCc2cc(OCCN3CCCC3c3cc(F)cc(F)c3)ccc2N1 (stereo not drawn) [ALDHI-2032, 6-[2-[2-(3,5-difluorophenyl)pyrrolidin-1-yl]ethoxy]-3,4-dihydro-1H-quinolin-2-one]	< 100 nM
Cc1nc(C2CCCN2CCOc2ccc3c(c2)CCC(=O)N3)cs1 (stereo not drawn) [ALDHI-2033, 6-[2-[2-(2-methylthiazol-4-yl)pyrrolidin-1-yl]ethoxy]-3,4-dihydro-1H-quinolin-2-one]	1000 to 10000 nM
COc1cccc(C2CCCN2CCOc2ccc3c(c2)CCC(=O)N3)c1 (stereo not drawn) [ALDHI-2034, 6-[2-[2-(3-methoxyphenyl)pyrrolidin-1-yl]ethoxy]-3,4-dihydro-1H-quinolin-2-one]	1000 to 10000 nM
CC1(c2cccc(F)c2)CCCN1CCOc1ccc2c(c1)CCC(=O)N2 (stereo not drawn) [ALDHI-2037, 6-[2-[2-(3-fluorophenyl)-2-methyl-pyrrolidin-1-yl]ethoxy]-3,4-dihydro-1H-quinolin-2-one]	< 100 nM
O=C1CCc2cc(OCCN3CCCCC3c3cccc(F)c3)ccc2N1 (stereo not drawn) [ALDHI-2038, 6-[2-[2-(3-fluorophenyl)-1-piperidyl]ethoxy]-3,4-dihydro-1H-quinolin-2-one]	1000 to 10000 nM
O=C1CCc2cc(OCCN3CCCC3c3ccc(F)c(F)c3)ccc2N1 (stereo not drawn) [ALDHI-2039, 6-[2-[2-(3,4-difluorophenyl)pyrrolidin-1-yl]ethoxy]-3,4-dihydro-1H-quinolin-2-one]	100 to 1000 nM

SMILES	IC50
CC1(c2ccccc2)COCCN1CCOc1ccc2c(c1)CCC(=O)N2 (stereo not drawn) [ALDHI-2040, 6-[2-(3-methyl-3-phenyl-morpholin-4-yl)ethoxy]-3,4-dihydro-1H-quinolin-2-one]	100 to 1000 nM
O=C1CCc2cc(OCCn3ccnc3-c3ccccc3)ccc2N1 [ALDHI-2041, 6-[2-(2-phenylimidazol-1-yl)ethoxy]-3,4-dihydro-1H-quinolin-2-one]	1000 to 10000 nM
CC1(C)Oc2cc(OCCN3CCCC3c3cccc(F)c3)ccc2NC1=O (stereo not drawn) [ALDHI-2043, 7-[2-[2-(3-fluorophenyl)pyrrolidin-1-yl]ethoxy]-2,2-dimethyl-4H-1,4-benzoxazin-3-one]	100 to 1000 nM
CC1Oc2cc(OCCN3CCCC3c3cccc(F)c3)ccc2NC1=O (stereo not drawn) [ALDHI-2044, 7-[2-[2-(3-fluorophenyl)pyrrolidin-1-yl]ethoxy]-2-methyl-4H-1,4-benzoxazin-3-one]	100 to 1000 nM
CCC1Oc2cc(OCCN3CCCC3c3cccc(F)c3)ccc2NC1=O (stereo not drawn) [ALDHI-2045, 2-ethyl-7-[2-[2-(3-fluorophenyl)pyrrolidin-1-yl]ethoxy]-4H-1,4-benzoxazin-3-one]	< 100 nM
CC1Cc2cc(OCCN3CCCC3c3cccc(F)c3)ccc2NC1=O (stereo not drawn) [ALDHI-2048, 6-[2-[2-(3-fluorophenyl)pyrrolidin-1-yl]ethoxy]-3-methyl-3,4-dihydro-1H-quinolin-2-one]	< 100 nM
O=C1CCc2cc(OCCN3CCCC3c3cccc(F)c3)c(F)cc2N1 (stereo not drawn) [ALDHI-2050, 7-fluoro-6-[2-[2-(3-fluorophenyl)pyrrolidin-1-yl]ethoxy]-3,4-dihydro-1H-quinolin-2-one]	100 to 1000 nM
O=C1CCc2cc(OCCN3C(=O)CCC3c3ccccc3)ccc2N1 (stereo not drawn) [ALDHI-2051, 6-[2-(2-oxo-5-phenyl-pyrrolidin-1-yl)ethoxy]-3,4-dihydro-1H-quinolin-2-one]	< 100 nM
O=C1CCc2cc(OCCN3CC(F)CC3c3cccc(F)c3)ccc2N1 (stereo not drawn) [ALDHI-2052, 6-[2-[4-fluoro-2-(3-fluorophenyl)pyrrolidin-1-yl]ethoxy]-3,4-dihydro-1H-quinolin-2-one]	< 100 nM
O=C1CCc2cc(OCCN3CC(F)(F)CC3c3cccc(F)c3)ccc2N1 (stereo not drawn) [ALDHI-2053, 6-[2-[4,4-difluoro-2-(3-fluorophenyl)pyrrolidin-1-yl]ethoxy]-3,4-dihydro-1H-quinolin-2-one]	< 100 nM
CN(CCOc1ccc2c(c1)CCC(=O)N2)Cc1cccc(F)c1 [ALDHI-3001, 6-[2-[(3-fluorophenyl)methyl-methyl-amino]ethoxy]-3,4-dihydro-1H-quinolin-2-one]	100 to 1000 nM
O=C1CCc2cc(OCCN(CCO)Cc3cccc(F)c3)ccc2N1 [ALDHI-3002, 6-[2-[(3-fluorophenyl)methyl-(2-hydroxyethyl)amino]ethoxy]-3,4-dihydro-1H-quinolin-2-one]	< 100 nM
CN(CCOc1ccc2c(c1)CCC(=O)N2)C(CO)c1cccc(F)c1 (stereo not drawn) [ALDHI-3003, 6-[2-[[1-(3-fluorophenyl)-2-hydroxy-ethyl]-methyl-amino]ethoxy]-3,4-dihydro-1H-quinolin-2-one]	100 to 1000 nM
CCN(CC)CCN(CCOc1ccc2c(c1)CCC(=O)N2)Cc1ccccc1 [ALDHI-3004, 6-[2-[benzyl-[2-(diethylamino)ethyl]amino]ethoxy]-3,4-dihydro-1H-quinolin-2-one]	< 100 nM
O=C1CCc2cc(OCCN(CCO)Cc3cccnc3)ccc2N1 [ALDHI-3005, 6-[2-[2-hydroxyethyl(3-pyridylmethyl)amino]ethoxy]-3,4-dihydro-1H-quinolin-2-one]	100 to 1000 nM
C[C@H](c1ccccc1)N(CCO)CCOc1ccc2c(c1)CCC(=O)N2 [ALDHI-3006, 6-[2-[2-hydroxyethyl-[(1R)-1-phenylethyl]amino]ethoxy]-3,4-dihydro-1H-quinolin-2-one]	100 to 1000 nM
